Laboratory results published in ChEMBL document CHEMBL5385971, “Identification of novel phenylalanine derivatives bearing a hydroxamic acid moiety as potent quorum sensing inhibitors” (RSC Med Chem, 2024).
Active and inactive are the calls of the source. The calls are words filed in the database; no cut-off is given here.

Tests used:
Pseudomonas aeruginosa [1] = assay: Antibiofilm activity against Pseudomonas aeruginosa PA14 assessed as inhibition of biofilm biomass at 30 uM incubated for 48 hrs by crystal violet staining based analysis relative to control; format: functional
[2] = tested on: Chromobacterium violaceum; assay: Inhibition of Chromobacterium violaceum ATCC 31532 quorum sensing receptor CviR at 30 uM incubated for 24 hrs by absorbance based microplate reader analysis relative to control
[3] = Inhibition of quorum sensing system in Pseudomonas aeruginosa transfected with lasB-gfp incubated for 20 hrs by fluorescence based multilabel plate reader analysis
Pseudomonas aeruginosa [4] = assay: Growth inhibition of Pseudomonas aeruginosa transfected with lasB-gfp; format: functional, organism-based
[5] = tested on: Chromobacterium violaceum; assay: Inhibition of Chromobacterium violaceum ATCC 31532 quorum sensing receptor CviR assessed as fold change at 30 uM incubated for 24 hrs by absorbance based microplate reader analysis relative to 4NPO
[6] = Potency index, ratio of 4NPO IC50 to test compound IC50 for inhibition of quorum sensing system in Pseudomonas aeruginosa transfected with lasB-gfp incubated for 20 hrs by fluorescence based multilabel plate reader analysis

Row | SMILES | inhibition at 30 µM (Pseudomonas aeruginosa [1]) [%] | inhibition [2] [%] | IC50 [3] [µM] | growth inhibition (GI) (Pseudomonas aeruginosa [4]) | fold change (FC) [5] | Ratio IC50 [6]
1 | O=C(N[C@@H](Cc1ccccc1)C(=O)NO)c1cc(Cl)ccc1F | 40 | 58 | 10 | inactive |  | 
2 | O=C(Nc1ccccc1)Nc1ccc(C(=O)N[C@@H](Cc2ccccc2)C(=O)NO)cc1 | < 1 | < 1 | > 100 | inactive |  | 
3 | O=C(Nc1ccc(Cl)cc1)c1ccc(C(=O)N[C@@H](Cc2ccccc2)C(=O)NO)cc1 | < 1 | < 1 | > 100 | inactive |  | 
4 | O=C(N[C@@H](Cc1ccccc1)C(=O)NO)c1ccc(Cl)c(Cl)c1 | < 1 | 35 | > 100 | inactive |  | 
5 | O=C(N[C@@H](Cc1ccccc1)C(=O)NO)c1ccc(C2CCCCC2)cc1 | 55 | 65 | 9.44 | inactive |  | 
6 | O=C(Nc1ccccc1)c1ccc(C(=O)N[C@@H](Cc2ccccc2)C(=O)NO)cc1 | 11 | < 1 | 92.3 | inactive |  | 
7 | Cc1ccc(S(=O)(=O)Nc2ccc(C(=O)N[C@@H](Cc3ccccc3)C(=O)NO)cc2)cc1 | 75 | 79 | 7.12 | inactive | 1.5 | 4
8 | O=C(N[C@@H](Cc1ccccc1)C(=O)NO)c1ccc(COc2ccccc2)cc1 | 20 | 11 | 83.5 | inactive |  | 
9 | O=C(N[C@@H](Cc1ccccc1)C(=O)NO)c1ccc2ccccc2n1 | < 1 | < 1 | 50.2 | inactive |  | 
